16 molecules from patent US12509453B2, “BRM/BRG1 inhibitors and uses thereof” (Foghorn Therapeutics Inc., priority 2019, dated 2025) can be followed below.

One assay deals with T1, BRG-1 (Homo sapiens, UniProt P51532).
T1 construct: made in house; host or cells: High Five insect cells
Description: ATPase catalytic activity assay (ADP-Glo), BRG-1. In kind it is biochemical. The settings on record: 30 nM BRG-1, 400 μM ATP; for IC50: 20 nM salmon sperm DNA, read-out: BRG1 IP50 (μM)*; for Emax: read-out: BRG1 Max % Inhibition. As to the method: (§1) The ATPase catalytic activity of BRM or BRG-1 was measured by the in vitro biochemical assay using ADP-Glo™ (Promega, V9102). The ADP-Glo™ kinase assay is performed in two steps once the reaction is complete. The first step is to deplete any unconsumed ATP in the reaction. The second step is to convert the reaction product ADP to ATP, which will be utilized by the luciferase to generate luminesce and be detected by a luminescence reader, such as Envision.
(§2) The assay reaction mixture (10 μL) contains 30 nM of BRM or BRG-1, 20 nM salmon sperm DNA (from Invitrogen, UltraPure™ Salmon Sperm DNA Solution, cat #15632011), and 400 μM of ATP in the ATPase assay buffer, which comprises of 20 mM Tris, pH 8, 20 mM MgCl2, 50 mM NaCl, 0.1% Tween-20, and 1 mM fresh DTT (Pierce™ DTT (Dithiothreitol), cat #20290). The reaction is initiated by the addition of the 2.5 μL ATPase solution to 2.5 μL ATP/DNA solution on low volume white Proxiplate-384 plus plate (PerkinElmer,cat #6008280) and incubates at room temperature for 1 hour. Then following addition of 5 μL of ADP-Glo™ Reagent provided in the kit, the reaction incubates at room temperature for 40 minutes. Then 10 μL of Kinase Detection Reagent provided in the kit is added to convert ADP to ATP, and the reaction incubates at room temperature for 60 minutes. Finally, luminescence measurement is collected with a plate-reading luminometer, such as Envision.
(§3) The ADP-Glo™ kinase assay is performed in two steps once the reaction is complete. The first step is to deplete any unconsumed ATP in the reaction. The second step is to convert the reaction product ADP to ATP, which will be utilized by the luciferase to generate luminesce and be detected by a luminescence reader, such as Envision.
as §2, with “BRG1,” for “BRG-1,”
(In ADP-Glo the light output rises with the ADP produced.)

The next assay addresses T2, BRM (Homo sapiens, UniProt P51531).
T2 construct: made in house; host or cells: High Five insect cells
Description: ATPase catalytic activity assay (ADP-Glo), BRM. In kind it is biochemical. The settings on record: 30 nM BRM, 400 μM ATP; for IC50: 20 nM salmon sperm DNA, read-out: BRM IP50 (μM)*. As to the method: as §1, §2, §3
as §2, with “BRG1,” for “BRG-1,”

T2 sequence (P51531 whole entry): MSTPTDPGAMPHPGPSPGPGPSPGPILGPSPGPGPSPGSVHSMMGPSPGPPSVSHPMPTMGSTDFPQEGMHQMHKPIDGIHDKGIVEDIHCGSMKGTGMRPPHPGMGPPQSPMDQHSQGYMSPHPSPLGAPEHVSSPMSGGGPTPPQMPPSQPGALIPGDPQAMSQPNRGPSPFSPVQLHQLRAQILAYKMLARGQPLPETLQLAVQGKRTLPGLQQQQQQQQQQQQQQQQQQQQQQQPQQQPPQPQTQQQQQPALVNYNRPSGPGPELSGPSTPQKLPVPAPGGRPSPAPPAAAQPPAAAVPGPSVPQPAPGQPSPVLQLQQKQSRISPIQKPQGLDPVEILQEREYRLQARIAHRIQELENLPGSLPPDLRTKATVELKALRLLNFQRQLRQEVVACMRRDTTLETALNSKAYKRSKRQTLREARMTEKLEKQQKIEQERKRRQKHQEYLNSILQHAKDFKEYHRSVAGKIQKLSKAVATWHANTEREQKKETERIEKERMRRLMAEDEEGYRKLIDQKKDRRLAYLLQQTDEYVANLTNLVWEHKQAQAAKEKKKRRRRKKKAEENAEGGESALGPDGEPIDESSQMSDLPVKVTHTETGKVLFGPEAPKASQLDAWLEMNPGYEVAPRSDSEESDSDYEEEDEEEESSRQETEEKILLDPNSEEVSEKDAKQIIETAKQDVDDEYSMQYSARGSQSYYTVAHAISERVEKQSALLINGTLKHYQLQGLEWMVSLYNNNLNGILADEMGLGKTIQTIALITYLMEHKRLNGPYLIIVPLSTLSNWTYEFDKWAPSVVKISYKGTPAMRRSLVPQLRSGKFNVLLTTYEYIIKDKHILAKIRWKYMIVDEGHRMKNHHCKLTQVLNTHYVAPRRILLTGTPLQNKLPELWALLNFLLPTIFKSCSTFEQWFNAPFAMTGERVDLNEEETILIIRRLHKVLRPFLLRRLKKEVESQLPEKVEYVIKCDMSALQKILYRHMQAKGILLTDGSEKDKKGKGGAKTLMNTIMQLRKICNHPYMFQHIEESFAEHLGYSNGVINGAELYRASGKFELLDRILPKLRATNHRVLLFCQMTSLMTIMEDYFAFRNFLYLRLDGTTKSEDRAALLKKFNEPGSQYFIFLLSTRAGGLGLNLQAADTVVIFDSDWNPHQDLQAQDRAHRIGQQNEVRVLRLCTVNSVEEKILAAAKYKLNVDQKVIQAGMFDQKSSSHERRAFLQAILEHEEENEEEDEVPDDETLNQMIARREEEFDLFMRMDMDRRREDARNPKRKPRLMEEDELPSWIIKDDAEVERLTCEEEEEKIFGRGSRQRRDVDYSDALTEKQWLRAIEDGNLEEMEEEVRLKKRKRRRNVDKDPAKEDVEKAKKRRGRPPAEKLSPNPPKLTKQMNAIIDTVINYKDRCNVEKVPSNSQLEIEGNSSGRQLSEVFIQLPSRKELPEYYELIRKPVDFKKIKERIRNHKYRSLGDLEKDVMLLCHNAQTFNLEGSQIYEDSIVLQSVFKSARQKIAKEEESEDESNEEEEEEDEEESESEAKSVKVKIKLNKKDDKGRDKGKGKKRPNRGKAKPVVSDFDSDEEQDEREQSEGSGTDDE
T1 sequence (P51532 whole entry): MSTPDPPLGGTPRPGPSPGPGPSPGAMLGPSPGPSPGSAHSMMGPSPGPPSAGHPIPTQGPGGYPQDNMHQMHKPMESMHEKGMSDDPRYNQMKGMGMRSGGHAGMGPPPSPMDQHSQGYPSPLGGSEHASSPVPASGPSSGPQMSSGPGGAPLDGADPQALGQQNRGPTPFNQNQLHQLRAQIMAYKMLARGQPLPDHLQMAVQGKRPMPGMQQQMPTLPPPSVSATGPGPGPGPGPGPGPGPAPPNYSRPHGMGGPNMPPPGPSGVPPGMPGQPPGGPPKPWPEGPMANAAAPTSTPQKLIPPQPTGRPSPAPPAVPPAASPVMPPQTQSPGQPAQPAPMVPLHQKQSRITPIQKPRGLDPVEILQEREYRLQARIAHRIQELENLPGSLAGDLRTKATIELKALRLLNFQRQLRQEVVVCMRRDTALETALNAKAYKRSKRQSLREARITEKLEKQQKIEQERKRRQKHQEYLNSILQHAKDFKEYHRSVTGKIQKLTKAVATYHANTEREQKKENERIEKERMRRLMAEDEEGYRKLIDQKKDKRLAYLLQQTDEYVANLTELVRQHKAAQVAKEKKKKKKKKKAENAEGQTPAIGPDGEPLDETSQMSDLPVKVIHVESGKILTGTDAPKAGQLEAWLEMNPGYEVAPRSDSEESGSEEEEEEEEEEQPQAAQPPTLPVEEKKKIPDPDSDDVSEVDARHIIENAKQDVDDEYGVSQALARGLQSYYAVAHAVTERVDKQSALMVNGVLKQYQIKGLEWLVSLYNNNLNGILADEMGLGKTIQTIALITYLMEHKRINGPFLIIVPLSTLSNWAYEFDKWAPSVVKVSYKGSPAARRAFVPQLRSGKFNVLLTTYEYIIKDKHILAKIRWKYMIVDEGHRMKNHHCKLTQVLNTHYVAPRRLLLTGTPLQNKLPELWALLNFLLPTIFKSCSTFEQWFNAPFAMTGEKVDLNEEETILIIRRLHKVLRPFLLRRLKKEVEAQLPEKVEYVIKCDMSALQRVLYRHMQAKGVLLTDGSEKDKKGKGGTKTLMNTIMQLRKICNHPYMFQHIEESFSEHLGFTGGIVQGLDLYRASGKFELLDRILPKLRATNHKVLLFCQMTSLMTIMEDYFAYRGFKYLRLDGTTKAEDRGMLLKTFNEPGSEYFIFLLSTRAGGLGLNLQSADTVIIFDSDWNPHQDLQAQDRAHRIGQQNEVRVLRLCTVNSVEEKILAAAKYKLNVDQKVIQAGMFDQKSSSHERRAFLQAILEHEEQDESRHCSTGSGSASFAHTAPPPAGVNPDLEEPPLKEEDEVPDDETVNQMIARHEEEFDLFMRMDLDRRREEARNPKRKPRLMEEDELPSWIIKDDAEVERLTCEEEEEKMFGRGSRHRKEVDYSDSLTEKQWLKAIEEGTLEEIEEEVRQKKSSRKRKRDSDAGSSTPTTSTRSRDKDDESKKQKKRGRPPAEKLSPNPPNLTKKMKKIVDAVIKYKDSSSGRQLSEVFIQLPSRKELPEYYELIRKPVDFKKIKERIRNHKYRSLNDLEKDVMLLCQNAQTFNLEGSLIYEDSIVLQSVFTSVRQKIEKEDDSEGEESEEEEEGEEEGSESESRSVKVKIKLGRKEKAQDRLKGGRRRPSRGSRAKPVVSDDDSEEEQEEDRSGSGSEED

For `CC(C)S(=O)(=O)n1cc(C(=O)NCC(=O)Nc2nc(-c3cccc(N4C[C@@H](C)O[C@@H](C)C4)c3)cs2)c2ccccc21` [Compound 31, N-(2-((4-(3-((cis)-2,6-dimethylmorpholino)phenyl)thiazol-2-yl)amino)-2-oxoethyl)-1-(isopropylsulfonyl)-1H-indole-3-carboxamide], at BRG-1, the IC50 is > 5 µM and the Emax was < 30%. Further, at BRM, the “BRM Max % Inhibition” value was >80% and the IC50 was 0.1 to 1 µM.
For `Cc1cc(-c2cccc(-c3csc(NC(=O)CNC(=O)c4cc(Cl)n(S(=O)(=O)C(C)C)c4)n3)n2)ncn1` [Compound 27, 5-chloro-1-(isopropylsulfonyl)-N-(2-((4-(6-(6-methylpyrimidin-4-yl)pyridin-2-yl)thiazol-2-yl)amino)-2-oxoethyl)-1H-pyrrole-3-carboxamide] the same measures were 0.1 to 1 µM, > 60%, >80% and 0.1 to 1 µM.
The matching figures for `Cc1cc(-c2cccc(-c3csc(NC(=O)CNC(=O)c4cn(S(=O)(=O)C(C)C)c(C)c4C)n3)c2)nc(C)n1` [Compound 14]: 0.1 to 1 µM, > 90%, >95% and < 0.1 µM.
In the case of `Cc1cc(-c2cccc(-c3csc(NC(=O)CNC(=O)c4cc(CO)n(S(=O)(=O)C(C)C)c4)n3)c2)cc(C)n1` [Compound 25, N-(2-((4-(3-(2,6-dimethylpyridin-4-yl)phenyl)thiazol-2-yl)amino)-2-oxoethyl)-5-(hydroxymethyl)-1-(isopropylsulfonyl)-1H-pyrrole-3-carboxamide], on BRG-1, the IC50 lay in the range of 0.1 to 1 µM and the Emax was > 80%. Besides, at BRM, the “BRM Max % Inhibition” value is given as >95% and the IC50 is < 0.1 µM.
The matching figures for `CS(=O)(=O)n1cc(C(=O)NCC(=O)Nc2nc(-c3cccc(-c4ccncc4)c3)cs2)c2ccccc21` [Compound 1, 1-(methylsulfonyl)-N-(2-oxo-2-((4-(3-(pyridin-4-yl)phenyl)thiazol-2-yl)amino)ethyl)-1H-indole-3-carboxamide]: > 5 µM, < 30%, >70% and 0.1 to 1 µM.
For `CC(C)S(=O)(=O)n1cc(C(=O)NCC(=O)Nc2nc(-c3cccc(-c4ccncc4)c3)cs2)c(Cl)c1Cl` [Compound 30, 4,5-dichloro-1-isopropylsulfonyl-N-[2-oxo-2-[[4-[3-(4-pyridyl)phenyl]thiazol-2-yl]amino]ethyl]pyrrole-3-carboxamide] the same measures were > 5 µM, < 30%, >50% and < 0.1 µM.
For `Cc1cc(-c2cccc(-c3csc(NC(=O)CNC(=O)c4cn(S(=O)(=O)C(C)C)c5ccccc45)n3)c2)cc(C)n1` [Compound 34, N-(2-((4-(3-(2,6-dimethylpyridin-4-yl)phenyl)thiazol-2-yl)amino)-2-oxoethyl)-1-(isopropylsulfonyl)-1H-indole-3-carboxamide], at BRG-1, the IC50 is 1 to 5 µM and the Emax is > 60%. At BRM, the “BRM Max % Inhibition” value is given as >90% and the IC50 is < 0.1 µM.
The matching figures for `Cc1nccc(-c2cccc(-c3csc(NC(=O)CNC(=O)c4cc(Cl)n(S(=O)(=O)C(C)C)c4)n3)c2)n1` [Compound 41, 5-chloro-1-isopropylsulfonyl-N-[2-[[4-[3-(2-methylpyrimidin-4-yl)phenyl]thiazol-2-yl]amino]-2-oxo-ethyl]pyrrole-3-carboxamide]: 0.1 to 1 µM, > 90%, >95% and < 0.1 µM.
The matching figures for `CS(=O)(=O)n1cc(C(=O)NCC(=O)Nc2nc(-c3cccc(-c4ccncc4)c3)cs2)c2ccncc21` [Compound 2, 1-(methylsulfonyl)-N-(2-oxo-2-((4-(3-(pyridin-4-yl)phenyl)thiazol-2-yl)amino)ethyl)-1H-pyrrolo[2,3-c]pyridine-3-carboxamide]: 1 to 5 µM, > 70%, >80% and 0.1 to 1 µM.
Regarding `Cc1nccc(-c2cccc(-c3csc(NC(=O)CNC(=O)c4cn(S(C)(=O)=O)c5ccccc45)n3)n2)n1` [Compound 22, N-(2-((4-(6-(2-methylpyrimidin-4-yl)pyridin-2-yl)thiazol-2-yl)amino)-2-oxoethyl)-1-(methylsulfonyl)-1H-indole-3-carboxamide], on BRG-1, the IC50 fell in the range of 1 to 5 µM and the Emax was > 40%. Also, at BRM, the “BRM Max % Inhibition” value is given as >80% and the IC50 is 0.1 to 1 µM.
Take `Cc1cc(-c2cccc(-c3csc(NC(=O)CNC(=O)c4cc(Cl)n(S(=O)(=O)C(C)C)c4)n3)c2)nc(C)n1` [Compound 32, 5-chloro-N-(2-((4-(3-(2,6-dimethylpyrimidin-4-yl)phenyl)thiazol-2-yl)amino)-2-oxoethyl)-1-(isopropylsulfonyl)-1H-pyrrole-3-carboxamide]: on BRG-1, the IC50 is 0.1 to 1 µM and the Emax is > 90%. At BRM, the “BRM Max % Inhibition” value is on record as >95% and the IC50 was < 0.1 µM.
The matching figures for `CS(=O)(=O)n1cc(C(=O)NCC(=O)Nc2nc(-c3cccc(-c4ccncc4)c3)cs2)c2ncccc21` [Compound 3, 1-(methylsulfonyl)-N-(2-oxo-2-((4-(3-(pyridin-4-yl)phenyl)thiazol-2-yl)amino)ethyl)-1H-pyrrolo[3,2-b]pyridine-3-carboxamide]: > 5 µM, > 40%, >40% and > 5 µM.
As for `Cc1nccc(-c2cccc(-c3csc(NC(=O)CNC(=O)c4cn(S(C)(=O)=O)c5c4CCCC5)n3)n2)n1` [Compound 18, N-(2-((4-(6-(2-methylpyrimidin-4-yl)pyridin-2-yl)thiazol-2-yl)amino)-2-oxoethyl)-1-(methylsulfonyl)-4,5,6,7-tetrahydro-1H-indole-3-carboxamide], on BRG-1, the IC50 was > 5 µM and the Emax was < 30%. On BRM, the “BRM Max % Inhibition” value is reported as >70% and the IC50 lay in the range of 0.1 to 1 µM.
For `CS(=O)(=O)n1cc(C(=O)NCC(=O)Nc2nc(-c3cccc(-c4ccncc4)c3)cs2)c2c1CCCC2` [Compound 5, 1-(methylsulfonyl)-N-(2-oxo-2-((4-(3-(pyridin-4-yl)phenyl)thiazol-2-yl)amino)ethyl)-4,5,6,7-tetrahydro-1 H-indole-3-carboxamide] the same measures were > 5 µM, < 30%, >60% and < 0.1 µM.
As to `CNC(=O)CN(C)c1cc(-c2cccc(-c3csc(NC(=O)CNC(=O)c4cc(C)n(S(C)(=O)=O)c4)n3)c2)ccn1` [Compound 46, 5-methyl-N-(2-((4-(3-(2-(methyl(2-(methylamino)-2-oxoethyl)amino)pyridin-4-yl)phenyl)thiazol-2-yl)amino)-2-oxoethyl)-1-(methylsulfonyl)-1H-pyrrole-3-carboxamide], the IC50 at BRG-1 and at BRM was < 0.1 µM throughout.
Consider `CC(C)S(=O)(=O)n1cc(C(=O)NCC(=O)Nc2nc(-c3cc(F)cc(N4C[C@@H](C)O[C@@H](C)C4)c3)cs2)c2ccccc21` [Compound 21, N-(2-((4-(3-((cis)-2,6-dimethylmorpholino)-5-fluorophenyl)thiazol-2-yl)amino)-2-oxoethyl)-1-(isopropylsulfonyl)-1H-indole-3-carboxamide], for which, on BRG-1, the IC50 is > 5 µM and the Emax is < 30%. Further, at BRM, the “BRM Max % Inhibition” value is recorded as >90% and the IC50 was in the range of 0.1 to 1 µM.
